Laboratory results taken from US20250195448A1, “CELL TYPE SELECTIVE DELIVERY OF EXOSOME CARGO USING NOTCH LIGAND-RECEPTOR SYSTEM” (Northwestern University, priority 2023, published 2025).
Entries after “also recorded” stand apart in the source; their conditions may differ.

Key:
[1] = test system: Alix; assay: Alix phosphorylation in Mg^2+-free glycine-treated neurons (IP of Alix, WB p-S/T); format: cell-based, rat; settings: for effect on Mg^2+-free glycine-induced Alix phosphorylation: H89 20 μM, staurosporine 1 μM, APV 50 μM, KN93 10 μM, AIP 1 μM
Protocol: Neurons were pretreated with DMSO (1:1000) or dynasore (80 μM, Sigma-Aldrich, Cat #SML0340) or H89 (20 μM, Sigma-Aldrich, Cat #B1427) or staurosporine (1 μM, Tocris, Cat #1285) or APV (50 μM, Sigma-Aldrich, Cat #A5282) or KN93 (10 μM, Sigma-Aldrich, Cat #K1385) or AIP (1 μM, Anaspec, Cat #AS-64929) for 30 mins at 37° C. in a humidified 5% CO2 atmosphere incubator. Then, neuron culture medium was carefully removed from dishes. The collected medium was then kept at 37° C. in a humidified 5% CO2 atmosphere incubator. The neurons were washed three times with Veh or Mg^2+-free glycine and incubated for 5 min with solutions containing different inhibitors. Then neurons were washed twice with Veh solution, the saved culture medium was returned and maintained in incubator for assigned durations (37° C., 5% CO2).
WedgeWell™ Tris-Glycine Mini Protein Gels (Fisher Scientific, Cat #XP04125BOX, XP04120BOX and XV00100PK20) were used for electrophoresis. After electrophoresis, proteins were transferred onto nitrocellulose membranes (Thermo Fisher, Cat #4500002). For WB, the membranes were blocked with 10% bovine serum albumin (BSA, Jackson immunoResearch laboratories, Cat #001-000-162) in TBST solution (Tris-buffered saline, 0.1% Tween 20) for one hour in room temperature (RT). Then membranes were incubated with primary antibodies in incubation solution (3% BSA in TBST) overnight at 4° C. with mild agitation. Following primary antibodies were used: mouse anti-Alix (1:1000, Cell Signaling Technology, Cat #2171S, RRID: AB_2299455), rabbit anti-Alix (1:1000, Cell Signaling Technology, Cat #18269, RRID: AB_2798796), mouse anti-Tsg101 (1:1000, Santa Cruz Biotechnology, Cat #sc-7964, RRID: AB_671392), mouse anti-CD81 (1:1000, Santa Cruz Biotechnology, Cat #sc-166029, RRID: AB_2275892), rabbit anti-Notch1ICD (1:1000, Abcam, Cat #ab52627, RRID: AB_881725), rabbit anti-Notch2ICD (1:1000, Cell Signaling Technology, Cat #5732S, RRID: AB_10693319), rabbit anti-activated Notch1 (1:1000, Abcam, Cat #ab52301, RRID: AB_881726), rabbit anti-activated Notch2 (1:1000, MyBioSource, Cat #MBS9410510), rabbit anti-Sdcbp (1:1000, Abcam, Cat #ab19903, RRID: AB_445200 and Cell Signaling Technology, Cat #27964), rabbit anti-GM130 (1:1000, Abcam, Cat #ab52649, RRID: AB_880266), rabbit anti-Hes1 (1:1000, Cell Signaling Technology, Cat #11988S, RRID: AB_2728766 and Abcam, Cat #ab71559, RRID: AB_1209570), chicken anti-Tuj1 (1:2000, Novus Biologicals, Cat #NB100-1612, RRID: AB_10000548), rabbit anti-p-S/T (1:1000, Cell Signaling Technology, Cat #9624S, RRID: AB_331817), mouse anti-PSD95 (1:2000, Thermo Fisher Scientific, Cat #MA1-046, RRID: AB_2092361), rabbit anti-PSD95(pS295) (1:1000, Abcam, Cat #ab76108, RRID: AB_1310621), rabbit anti-GAPDH (1:2000, Cell Signaling Technology, Cat #2118, RRID: AB_561053), rabbit anti-GluA1 (1:1000, EMD Millipore, Cat #PC246, RRID: AB_564636) and guinea pig anti-Bassoon (1:1000, Synaptic Systems, Cat #141 318, RRID: AB_2927388). After 3×10 mins intense wash in TBST solution, membranes were incubated with corresponding secondary antibodies for one hour at RT with mild agitation. Following secondary antibodies were used: goat-anti-rabbit poly-HRP (1:2000, Thermo Scientific, Cat #32260), goat-anti-mouse poly-HRP (1:2000, Thermo Scientific, Cat #32230), goat-anti-chicken HRP (1:2000, Abcam, Cat #ab97135) and Goat anti-Guinea Pig poly-HRP (1:2000, Fisher Scientific, Cat #OB6090-05). […] Fiji (NIH) was used for quantification.

[2] = test system: hippocampal neurons; assay: Mg^2+-free glycine-induced neuronal EV release; format: cell-based; settings: for effect on Mg^2+-free glycine-induced EV release: APV 50 μM, H89 20 μM
Protocol: Synaptic NMDARs were activated as previously described^16,63. […] The osmolarity was adjusted to 300-330 mOsm/l). […] The osmolarity was adjusted to 300-330 mOsm/l). […] The EV-containing supernatant was centrifuged at 3000×g for 30 mins at 4° C. to remove residual neurons and large debris. Then, the supernatant was concentrated using a molecular weight cutoff (MWCO) filter (10 KDa, EMD Millipore, Cat #UFC801024) to 0.5 ml. The concentrated solution was then fractionated into 10 fractions (0.5 ml in EV-free PBS, MEDIATECH INC CA, Cat #21-040-CV) using a qE-Voriginal-35 nm SEC column (Izon Science, Cat #SP5-USD) with an automated fraction collector V1 (Izon Science, Cat #AFC-V1). For each experimental group, EVs released from three 60 mm dishes of mouse hippocampal neurons were pooled and enriched by the SEC method as described above. Then take 10 μl of the enriched EVs from each sample and dilute them with 990 μl EV-free PBS. The samples were centrifuged at 2500×g for 15 mins. Mix 0.5 ml of each sample with 0.5 ml incubation solution. Load 70 μl of each mixture to an ExoView Mouse Tetraspanin chip (Nanoview Bioscience, Cat #EV-TETRA-M2) and incubate overnight at RT in dark. The next day, unbound EVs were washed off the chip by five 3-min washes with the solution A. After incubating with the block solution for 1 hr (RT), the chips were incubated with anti-tetraspanin mixture (Included in the kit, anti-CD81, CF® 555, anti-CD9, CF® […] and anti-CD63, CF® 647) for 1 hr on an orbital shaker. The chips were washed with the solution A twice (3 mins each) and the solution B 5 times (3 min each). The chips were then rinsed in MilliQ water to remove excess solution B. Air dry the chips. A NanoView R100 equipment (Nanoview Bioscience) was used to scan the chips. The data was analyzed by ExoView Analyzer 3.1.4 (Nanoview Bioscience). […] Then, neuron culture medium was carefully removed from dishes. […] Then neurons were washed twice with Veh solution, the saved culture medium was returned and maintained in incubator for assigned durations (37° C., 5% CO2).

[3] = test system: Notch signaling pathway; assay: Pharmacological treatments of neurons, Mg^2+-free glycine-induced Notch activation (WB); format: cell-based, rat; settings: 90 mins after treatment; for effect on Mg^2+-free glycine-induced elevation of activated-Notch1, -Notch2 and Hes1 protein levels: APV 50 μM, dynasore 80 μM pretreatment
Protocol: Synaptic NMDARs were activated as previously described^16,63. […] The osmolarity was adjusted to 300-330 mOsm/l). […] The osmolarity was adjusted to 300-330 mOsm/l). […] Then, neuron culture medium was carefully removed from dishes. […] Then neurons were washed twice with Veh solution, the saved culture medium was returned and maintained in incubator for assigned durations (37° C., 5% CO2). Neuron samples were collected and resuspended in a RIPA lysis buffer (50 mM Tris, 150 mM NaCl, 0.1% SDS, 1 mM EDTA, 0.5% sodium deoxycholate, 1% Triton X-100, 1× protease inhibitor cocktail (Thermo Fisher Scientific, Cat #78443), 1× phosphatase inhibitor (Thermo Fisher Scientific, Cat #78420), pH 7.4). The resuspended lysates were vortexed for 20 s and then incubated on ice for 30 min and centrifuged at 16,200 g for 15 mins. The supernatants were mixed with 4×SDS loading buffer at a 3:1 ratio. The mixtures were boiled at 95° C. for 5 mins. […] Fiji (NIH) was used for quantification.

[4] = test system: rat hippocampal neurons
Protocol: DIV 18 rat hippocampal neurons in 6-well plate (cover glasses, Carolina, Cat #633037, 1.5×10^6 cells per well) were used for this assay. At DIV 16, neurons were co-transfected with either 1 μg mCherry+GFP or 1 μg mCherry-Alix+GFP plasmids using HilyMax (Dojindo Cat #H357-15). Two days later, the neurons were used for live cell imaging analysis. Neurons (put in a magnetic imaging chamber, Warner Instruments, Cat #QR-40L) were rinsed three times with warm (37° C.) extracellular solution (pH 7.4, 150 mM NaCl, 5 mM KCl, 1 mM MgCl2, 2 mM CaCl2), 10 mM glucose, 10 mM HEPES). Then the neurons were placed into a heating stage (37° C.) supplied with a humidified 5% CO2 atmosphere and were incubated with this solution for 20 mins in a humidified 5% CO2 atmosphere incubator at 37° C. […] Then the extracellular solution was put back. Images were captured using a Nikon A1R+ confocal laser microscope and a 100× oil objective lens (also was kept at 37° C. during recording). […] The data was imported to Fiji (NIH) for further analysis.

[5] = test system: neurons; settings: 30 mins treatment
Protocol: An aliquot of each sample (100 l) was transferred from the culture wells to the wells of a 96-well plate and mixed with 100 μl of the reaction solution provided by the kit. Optical density was measured at 492 nm 45 min later using a Synergy HTX multi-mode microplate reader (Biotek). Background absorbance at 620 nm was subtracted. The maximal releasable LDH in each well was then obtained by a 15 min incubation with 1% Triton X-100 at the end of each experiment.

[6] = test system: Notch target genes; settings: 60 mins after treatment
[7] = test system: PSD95
Protocol: WedgeWell™ Tris-Glycine Mini Protein Gels (Fisher Scientific, Cat #XP04125BOX, XP04120BOX and XV00100PK20) were used for electrophoresis. After electrophoresis, proteins were transferred onto nitrocellulose membranes (Thermo Fisher, Cat #4500002). For WB, the membranes were blocked with 10% bovine serum albumin (BSA, Jackson immunoResearch laboratories, Cat #001-000-162) in TBST solution (Tris-buffered saline, 0.1% Tween 20) for one hour in room temperature (RT). Then membranes were incubated with primary antibodies in incubation solution (3% BSA in TBST) overnight at 4° C. with mild agitation. […] Fiji (NIH) was used for quantification.

Structure (SMILES)	effect on Mg^2+-free glycine-induced Alix phosphorylation [1]	effect on Mg^2+-free glycine-induced EV release [2]	effect on Mg^2+-free glycine-induced elevation of activated-Notch1, -Notch2 and Hes1 protein levels [3]	other results
N[C@H](CCCP(=O)(O)O)C(=O)O [APV, D-2-amino-5-phosphonovalerate]	blocked; also recorded: significantly reduced	suppress; also recorded: blocked	inhibited	
O=C(N/N=C/c1ccc(O)c(O)c1)c1cc2ccccc2cc1O [Dynasore]			blocked elevation	effect on Mg^2+-free glycine-induced elevation of activated-Notch1, -Notch2 and Hes1 protein levels ([3]; listed as dynasore): inhibited
O=S(=O)(NCCNC/C=C/c1ccc(Br)cc1)c1cccc2cnccc12 [H89]	significantly inhibit; also recorded: inhibited	suppress; also recorded: blocked		
COc1ccc(S(=O)(=O)N(CCO)c2ccccc2CN(C)C/C=C/c2ccc(Cl)cc2)cc1 [KN93]	failed to block			
NCC(=O)O [Mg^2+-free glycine, glycine]				Alix phosphorylation after Mg^2+-free glycine stimulation [1]: leads to Alix phosphorylation; dendritic spine enlargement [4]: enlarged dendritic spines; neuronal EV biogenesis and release ([2]; Mg^2+-free glycine solution, 30 mins): triggered; plasma membrane rapture (LDH) [5]: does not cause; Notch target gene expression [6]: activated; levels of activated-Notch1, -Notch2 and Hes1 after Mg^2+-free glycine treatment ([3]; WB): elevated; phosphorylation of Ser295 (pS295) in PSD95 [7]: induces
CN[C@@H]1C[C@H]2O[C@@](C)([C@@H]1OC)n1c3ccccc3c3c4c(c5c6ccccc6n2c5c31)C(=O)NC4 [Stau, staurosporine]	not significant			
